In patent US12596125B2, “Nano-rheological biomarkers for early and improved follow-up of pathologies associated to RBC deformability alteration” (ALCEDIAG, priority 2019, dated 2026):
Where “and” joins values, the source holds several entries; their conditions need not be identical. Identical values can stand only once.

Assays:
[1] = Sensitivity of rotor fluorescence to pH and ionic strength (NaCl); assay type: physicochemical; conditions: 37 °C, rotor 15 μM; for dependency of fluorescence intensity on NaCl concentration (ionic strength): NaCl 0.1-200 mM, water-glycerol 50%-50%; for dependency of fluorescence intensity on pH: pH 3-8, citric acid/phosphate, water-glycerol 70%-30%
From the text: (§1) The fluorescent response spectra of the rotors has been measured by varying four parameters • Viscosity, with water-glycerol solutions with increasing relative concentration (see FIGS. 2A-2D); • Electrostatic and ionic perturbations, with increasing NaCl concentration in a water-glycerol solution (50%-50%) (see FIG. 3A)); • pH, with buffered solutions Citric acid/Phosphate pH; 3<pH<8 in a water-glycerol solution (70%-30%) (see FIG. 3B); and • Molecular density and highly interacting (including hydrophobic) environment using a gradient BSA (bovine serum albumin) (see FIG. 4A-4D).
(§2) The pH was assayed from 3 (corresponding to the most acidic zones) to 8. For viscosity, we used literature data agreeing on apparent values in various cellular media, ranging from 1.5 mPa·s in the cytoplasm up to 140 mPa·s in the vesicles. In our studies, the MR concentration was set to 15 μM under the expected toxicity onset [Haidekker (2010a)]. One key remark, as any fluorescent molecule, signal intensity is also a function of its concentration. It is therefore very important to control the concentration of molecular rotor or, if when impossible, to be able to measure the concentration regardless of the viscosity.

[2] = Fluorescence intensity as a function of viscosity (Förster-Hoffmann equation); assay type: physicochemical
Procedure: FIGS. 10a-10b: Emission peak intensity (fluorescence microscopy, excitation at 488 nm, emission 595±30 nm) of the molecular rotor DASPI at concentration 0.01 mM, 0.1 mM, 1 mM in (left) ethylene glycol/glycerol solutions and (right) aqueous glycerol solutions with increasing viscosity. The solutions temperature was fixed at T=X ° C. The fluorescence intensity increases with the solution viscosity according to the Förster-Hoffmann equation log φ=C+b log η, with solvent-dependent parameters b and C; Ethylene glycol/glycerol solutions: C=94,641,2206± and b=0.69±0.01 and aqueous glycerol solutions: C=74,344,1590± and b=0.70±0.01.
as §1, §2
The second step was to assess the sensitivity of DASPI to the local viscosity of the surrounding medium. More generally, fluorescent MRs photophysical sensitivity depends on their interaction with the environment, characterized by viscosity, polarity and solubility. […] Here we have investigated the DASPI emission intensity (fluorescence microscopy, excitation at 488 nm, emission at 595±30 nm) in ethylene glycol/glycerol solutions (viscosity between 10-200 mPa·s) and aqueous solutions of glycerol (viscosity between 2-200 mPa·s). In each solution, the relative concentration of both solvents was varied to adjust the viscosity of the resulting mixture, at temperature T=X° C. The viscosity was measured in situ by microrheology measurements, just before fluorescence intensity measurements. […]

[3] = Excitation-emission matrix (spectral response) of molecular rotors; assay type: physicochemical
Procedure: Excitation wavelength in abscissa, emission in ordinates, in nanometer (nm)). The rotors are diluted in a water/glycerol solution at a concentration 15 μM.
FIGS. 9a-9f: Excitation emission matrices of the molecular rotor DASPI, at temperature 25° C., at concentration 3.3 μM in (a) DMSO (η=2 mPa·s), (b) Ethylene glycol (η=13.5 mPa·s), (c) Glycerol (η=945 mPa·s) and (d,e) Hemoglobin in PBS (1000× dilution, different scale, η=1 mPa·s). The Fluorescence EEM of hemoglobin alone (f) was also measured to give evidence that there is no contribution of hemoglobin in the DASPI range of interest. […] In hemoglobin solutions however (d,e), the emission peak value is lower than in DMSO for similar viscosities because of the high absorbance of the solution.
The excitation-emission matrix of these 4 rotors, diluted in a glycerol/water solution (purely viscous fluid), have been measured using a SYNERGY H1 (Hybrid Multi-Mode reader, BioTek).
In a first step, fluorescence Excitation Emisson Matrices (EMMs) of DASPI were measured in selected solvents, at controlled temperature 25·C: DMSO, Ethylene Glycol, Glycerol and hemoglobin/PBS solutions (dilution 1000×). […] The Fluorescence EEM of hemoglobin alone (dilution 1000× in PBS) was also measured in the DASPI range of interest to give evidence that there is no contribution of hemoglobin in this range (f).

[4] = biological target: T1, hemoglobin solutions (Homo sapiens, UniProt P68871+P69905); assay: Emission intensity of rotor in hemoglobin solutions of increasing viscosity; assay type: physicochemical; conditions: viscosity 3.4-9.2 mPa·s, temperature 17-34 °C
T1 construct: The RBC pellet was exposed to 3 freeze-thaw cycles (−80° C. to 37° C.) to lyse RBC membranes; from tissue; host or cells: red blood cells from blood samples (lysate, membranes extracted with CCl4)
T1 sequence (P69905 2-142 limits assumed): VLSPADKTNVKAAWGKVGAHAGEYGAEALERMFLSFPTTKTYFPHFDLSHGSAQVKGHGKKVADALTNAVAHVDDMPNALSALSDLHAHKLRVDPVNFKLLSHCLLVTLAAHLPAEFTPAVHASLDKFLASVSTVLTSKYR
T1 sequence (P68871 2-147 limits assumed): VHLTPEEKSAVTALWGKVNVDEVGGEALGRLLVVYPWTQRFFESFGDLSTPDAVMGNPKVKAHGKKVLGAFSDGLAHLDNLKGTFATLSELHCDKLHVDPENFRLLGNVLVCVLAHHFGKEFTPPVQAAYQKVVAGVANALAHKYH
Procedure: Red blood cells were washed three times in PBS buffer in order to prepare hemoglobin solutions from blood samples. After a final centrifugation at 1200 g for 10 min, all the supernatant was removed. The RBC pellet was exposed to 3 freeze-thaw cycles (−80° C. to 37° C.) to lyse RBC membranes. Membrane residues were then extracted by addition of CCl4 to the lysate (⅓ of the volume), strong agitation and ultra-centrifugation at 10000 g for 15 min. The hemoglobin concentration in the final solution was measured by colorimetry (MAK 115 Hemoglobin Assay Kit from Sigma-Aldrich).
We studied the emission intensity of tDASMP in hemoglobin solutions of increasing viscosity. The temperature of the sample was varied between 17° C. and 34° C.

[5] = tested on: red blood cells (RBCs); assay: Fluorescence of rotor in healthy and glutaraldehyde-stiffened red blood cells (confocal / epi-fluorescence microscopy); assay type: cell-based; conditions: glutaraldehyde 0-2% per volume of cells; 0.4 mM rotor, 1 hour; excitation 488 nm, detection 565-625 nm
Procedure: FIG. 6: Left: Suspension of healthy red blood cells and red blood cells stiffened with glutaraldehyde, in a PBS solution, using confocal microscopy (×40 objective, excitation at 488 nm, detection between 542-626 nm). The molecular rotor tDASMP was introduced into the solution according the protocol described in Example 2.
As a next step towards the rheological characterization of RBCs with MRs, we then imaged a suspension of healthy and artificially rigidified RBCs (by incubation during 10 min in a 1% (v/v) Glutaraldehyde solution in PBS) treated with tDASMP. […] Confocal microscopy allows to measure fluorescence profiles across RBCs.
In a second step, a quantification of the fluorescence response as a function of the degree of rigidification of RBCs can be performed. […]
For visualization, samples were placed between a glass slide and coverslip separated by a 250 μm spacer and initially incubated in a PBS solution supplemented with 1% BSA (Bovine Serum Albumin, Sigma-Aldrich) to prevent RBC adhesion. Observation was made with a Leica microscope in epi-fluorescence mode with excitation at 488 nm and detection at 565-625 nm. Images recorded with a sCMOS fast camera (OrcaFlash4.0 v2+, Hamamatsu Photonics France S.A.R.L., Massy, France) allowed to measure the mean fluorescence intensity of RBCs rescaled by the background fluorescence level.

[6] = tested on: red blood cells (RBCs); assay: Penetration and localization of molecular rotor in red blood cells by confocal microscopy; assay type: cell-based; conditions: for penetration of the rotor into RBCs: healthy and rigidified RBCs
Procedure: FIG. 12: Bright field image and confocal z-stacks obtained using confocal microscopy (X40 objective, excitation at 488 nm, detection between 542-626 nm) for three healthy RBCs with different orientations in a 1 mM DASPI solution. The z position of the slices is indicated. […] The mean intensity was measured in the depicted color boxes and each data point corresponds to a confocal slice (0.5 μm distance). As a next step towards the rheological characterization of RBCs with MRs, we then imaged a suspension of healthy and artificially rigidified RBCs (by incubation during 10 min in a 1% (v/v) Glutaraldehyde solution in PBS) treated with […]. Healthy and rigidified RBC suspensions were mixed and the resulting suspension was observed using confocal microscopy with an excitation at 488 nm and detection between 546 nm and 626 nm. An image corresponding to the mid-cross section of the RBC after cells have sedimented on the bottom window of the observation chamber is shown in FIG. 6. […] Confocal microscopy allows to measure fluorescence profiles across RBCs. The localization of the DASPI molecular rotor in healthy red blood cells was studied by confocal microscopy. Confocal images were acquired during the slow sedimentation of the RBCs with different orientations in the observation microchannel. […] Beyond the membrane, in the cytosol, the signal from DASPI was homogeneous in the observation plane, regardless of the z-position and orientation of the cell. Confocal microscopy allows us to unambiguously separate the fluorescence response from the membrane and cytosol. In fact, as soon as the upper and lower membranes are out of the depth of field ( 600 nm), they no longer contribute to the field of vision. […] By scanning the different parts of the red blood cells, we measure that the DASPI fluorescence signal is present throughout the whole red blood cell, over a distance which corresponds approximately (given the depth of field) to the typical known sizes of the red blood cell: diameter 8 μm (b), thickness on the edge 3 μm (a), thickness in the biconcave zone 1 μm (a).

N#C/C(=C\c1cc2c3c(c1)CCCN3CCC2)C(=O)O [CCVJ, Carboxycyanovinyl-Julolidine]
dependency of fluorescence intensity on NaCl concentration (ionic strength) [1]: no significant dependency
dependency of fluorescence intensity on pH [1]: no significant dependency

N#CC(C#N)=Cc1cc2c3c(c1)CCCN3CCC2 [DCVJ, Dicyanovinyl-Julolidine]
dependency of fluorescence intensity on NaCl concentration (ionic strength) [1]: no significant dependency
dependency of fluorescence intensity on pH [1]: no significant dependency

Cc1ccc2c(c1)sc(-c1ccc(N(C)C)cc1)[n+]2C.[Cl-] [Tht, Thioflavine T]
dependency of fluorescence intensity on NaCl concentration (ionic strength) [1]: no significant dependency
dependency of fluorescence intensity on pH [1]: no significant dependency
excitation/emission peak following the Förster-Hoffmann equation ([2]; water-glycerol solutions, viscosity 1-200 mPa·s): 430/490
excitation/emission peaks ([3]; water/glycerol solution, rotor 15 μM): around 380/440 and 430/490

CN(C)c1ccc(C=Cc2cc[n+](C)cc2)cc1.[I-] [tDASMP, trans-4-[4-(Dimethylamino)styryl]-1-methylpyridinium iodide]
fluorescence emission intensity versus viscosity of hemoglobin solutions [4]: increase in fluorescence emission intensity
mean fluorescence intensity of RBCs versus RBC rigidity [5]: increasing function of RBC rigidity
dependency of fluorescence intensity on NaCl concentration (ionic strength) [1]: no significant dependency
dependency of fluorescence intensity on pH [1]: no significant dependency
Förster-Hoffmann exponent b ([2]; aqueous glycerol solutions, excitation 488 nm, emission 595±30 nm): 0.70±0.01
Förster-Hoffmann exponent b ([2]; both ethylene glycol/glycerol and glycerol/water solutions): around 0.7
Förster-Hoffmann exponent b ([2]; ethylene glycol/glycerol solutions, excitation 488 nm, emission 595±30 nm): 0.69±0.01
fluorescence excitation peak ([3]; DMSO, ethylene glycol, glycerol, hemoglobin/PBS, 25 °C, 3.3 μM): around 480 nm
interference of excitation-emission spectrum with hemoglobin fluorescence ([3]; hemoglobin in PBS, 1000× dilution): does not interfere with the intrinsic hemoglobin fluorescent spectrum
emission ([3]; rotor of Examples 1-2): 580-620 nm
excitation peak ([3]; rotor of Examples 1-2): around 490 nm
distribution of the rotor inside RBCs [6]: uniformly distributed throughout the volume of RBCs
penetration of the rotor into RBCs [6]: able to cross the membrane and penetrate within the RBCs
penetration of the rotor into RBCs ([6]; listed as DASPI): spontaneously penetrates into red blood cells
